# Results from PubChem BioAssay (NCI).
#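 48-hour exposure; five concentrations; linearly interpolated endpoints. Definition used: TGI = concentration required for complete inhibition of growth.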
# Key:
# Assay in all cases: NCI anticancer screen, dose series, 48 h
# SNB-75 CNS = test system: SNB-75 CNS
# MOLT-4 leukemia = test system: MOLT-4 leukemia
# EKVX NSCLC = test system: EKVX NSCLC
# LOX IMVI melanoma = test system: LOX IMVI melanoma
# SK-MEL-28 melanoma = test system: SK-MEL-28 melanoma
# UACC-257 melanoma = test system: UACC-257 melanoma
# SNB-78 CNS = test system: SNB-78 CNS
# KM20L2 colon = test system: KM20L2 colon
# UO-31 renal = test system: UO-31 renal
# COLO 205 colon = test system: COLO 205 colon
# SF-539 CNS = test system: SF-539 CNS
# SN12C renal = test system: SN12C renal
# SF-268 CNS = test system: SF-268 CNS
# IGROV1 ovarian = test system: IGROV1 ovarian
# SK-MEL-5 melanoma = test system: SK-MEL-5 melanoma
# DMS 273 small cell lung = test system: DMS 273 small cell lung
# U251 CNS = test system: U251 CNS
# SF-295 CNS = test system: SF-295 CNS
# OVCAR-8 ovarian = test system: OVCAR-8 ovarian
# SR leukemia = test system: SR leukemia
# HCC-2998 colon = test system: HCC-2998 colon
# K-562 leukemia = test system: K-562 leukemia
# 786-0 renal = test system: 786-0 renal
# HOP-18 NSCLC = test system: HOP-18 NSCLC
# A549 NSCLC = test system: A549 NSCLC
# LXFL 529 NSCLC = test system: LXFL 529 NSCLC
# RPMI-8226 leukemia = test system: RPMI-8226 leukemia
# CAKI-1 renal = test system: CAKI-1 renal
# RXF 393 renal = test system: RXF 393 renal
# TK-10 renal = test system: TK-10 renal
# ACHN renal = test system: ACHN renal
# XF 498 CNS = test system: XF 498 CNS
# M19-MEL melanoma = test system: M19-MEL melanoma
# NCI-H460 lung = test system: NCI-H460 lung
# NCI-H522 lung = test system: NCI-H522 lung
# KM12 colon = test system: KM12 colon
# NCI-H23 lung = test system: NCI-H23 lung
# DMS 114 small cell lung = test system: DMS 114 small cell lung
# DLD-1 colon = test system: DLD-1 colon
# M14 melanoma = test system: M14 melanoma
# SNB-19 CNS = test system: SNB-19 CNS
# HT29 colon = test system: HT29 colon
# SW-620 colon = test system: SW-620 colon
# OVCAR-4 ovarian = test system: OVCAR-4 ovarian
# UACC-62 melanoma = test system: UACC-62 melanoma
# HCT-116 colon = test system: HCT-116 colon
# SK-OV-3 ovarian = test system: SK-OV-3 ovarian
# HCT-15 colon = test system: HCT-15 colon
# A498 renal = test system: A498 renal
# HOP-62 NSCLC = test system: HOP-62 NSCLC
# OVCAR-3 ovarian = test system: OVCAR-3 ovarian
# OVCAR-5 ovarian = test system: OVCAR-5 ovarian
# MALME-3M melanoma = test system: MALME-3M melanoma
# HOP-92 NSCLC = test system: HOP-92 NSCLC
# HL-60(TB) leukemia = test system: HL-60(TB) leukemia
# CCRF-CEM leukemia = test system: CCRF-CEM leukemia
# SK-MEL-2 melanoma = test system: SK-MEL-2 melanoma
# NCI-H226 lung = test system: NCI-H226 lung
smiles,measurement,setting,value
Clc1ccc(C2=Nc3ccccc3SC(c3cccs3)C2)cc1 (stereo not drawn),TGI,SNB-75 CNS,34.1 µM
same,TGI,MOLT-4 leukemia,> 100 µM
same,TGI,EKVX NSCLC,31.3 µM
same,TGI,LOX IMVI melanoma,19.9 µM
same,TGI,SK-MEL-28 melanoma,31.8 µM
same,TGI,UACC-257 melanoma,29.4 µM
same,TGI,SNB-78 CNS,85.2 µM
same,TGI,KM20L2 colon,30.2 µM
same,TGI,UO-31 renal,26.4 µM
same,TGI,COLO 205 colon,31.2 µM
same,TGI,SF-539 CNS,32 µM
same,TGI,SN12C renal,29.3 µM
same,TGI,SF-268 CNS,30.4 µM
same,TGI,IGROV1 ovarian,28 µM
same,TGI,SK-MEL-5 melanoma,30.2 µM
same,TGI,DMS 273 small cell lung,27.1 µM
same,TGI,U251 CNS,24.1 µM
same,TGI,SF-295 CNS,28.2 µM
same,TGI,OVCAR-8 ovarian,30.4 µM
same,TGI,SR leukemia,62.4 µM
same,TGI,HCC-2998 colon,30.9 µM
same,TGI,K-562 leukemia,33.7 µM
same,TGI,786-0 renal,29.8 µM
same,TGI,HOP-18 NSCLC,35 µM
same,TGI,A549 NSCLC,36 µM
same,TGI,LXFL 529 NSCLC,31.3 µM
same,TGI,RPMI-8226 leukemia,7.26 µM
same,TGI,CAKI-1 renal,31.3 µM
same,TGI,RXF 393 renal,22.7 µM
same,TGI,TK-10 renal,31.1 µM
same,TGI,ACHN renal,28.7 µM
same,TGI,XF 498 CNS,29.8 µM
same,TGI,M19-MEL melanoma,28.8 µM
same,TGI,NCI-H460 lung,32 µM
same,TGI,NCI-H522 lung,32 µM
same,TGI,KM12 colon,22.5 µM
same,TGI,NCI-H23 lung,27.2 µM
same,TGI,DMS 114 small cell lung,31.2 µM
same,TGI,DLD-1 colon,22 µM
same,TGI,M14 melanoma,30 µM
same,TGI,SNB-19 CNS,30.3 µM
same,TGI,HT29 colon,27.8 µM
same,TGI,SW-620 colon,25.8 µM
same,TGI,OVCAR-4 ovarian,27.2 µM
same,TGI,UACC-62 melanoma,29.1 µM
same,TGI,HCT-116 colon,20 µM
same,TGI,SK-OV-3 ovarian,30.5 µM
same,TGI,HCT-15 colon,27.1 µM
same,TGI,A498 renal,28.1 µM
same,TGI,HOP-62 NSCLC,39.3 µM
same,TGI,OVCAR-3 ovarian,24 µM
same,TGI,OVCAR-5 ovarian,27.6 µM
O=C(/C=C/c1ccccc1F)c1ccc([N+](=O)[O-])cc1,TGI,SNB-75 CNS,42.6 µM
same,TGI,EKVX NSCLC,> 100 µM
same,TGI,LOX IMVI melanoma,15.5 µM
same,TGI,SK-MEL-28 melanoma,43.2 µM
same,TGI,SNB-78 CNS,> 100 µM
same,TGI,KM20L2 colon,> 100 µM
same,TGI,UO-31 renal,39.8 µM
same,TGI,COLO 205 colon,> 100 µM
same,TGI,MALME-3M melanoma,70 µM
same,TGI,SN12C renal,> 100 µM
same,TGI,SF-268 CNS,> 100 µM
same,TGI,IGROV1 ovarian,63.9 µM
same,TGI,DMS 273 small cell lung,> 100 µM
same,TGI,U251 CNS,31.1 µM
same,TGI,SF-295 CNS,75.6 µM
same,TGI,OVCAR-8 ovarian,73.5 µM
same,TGI,HOP-92 NSCLC,45.5 µM
same,TGI,HCC-2998 colon,30.3 µM
same,TGI,K-562 leukemia,34.8 µM
same,TGI,786-0 renal,> 100 µM
same,TGI,HOP-18 NSCLC,> 100 µM
same,TGI,A549 NSCLC,> 100 µM
same,TGI,LXFL 529 NSCLC,40.7 µM
same,TGI,CAKI-1 renal,85.4 µM
same,TGI,RXF 393 renal,49.8 µM
same,TGI,TK-10 renal,> 100 µM
same,TGI,ACHN renal,> 100 µM
same,TGI,XF 498 CNS,58.9 µM
same,TGI,M19-MEL melanoma,50.5 µM
same,TGI,NCI-H460 lung,93 µM
same,TGI,NCI-H23 lung,> 100 µM
same,TGI,DMS 114 small cell lung,44 µM
same,TGI,DLD-1 colon,39.1 µM
same,TGI,M14 melanoma,72.6 µM
same,TGI,HT29 colon,39.9 µM
same,TGI,SW-620 colon,84 µM
same,TGI,OVCAR-4 ovarian,89.7 µM
same,TGI,UACC-62 melanoma,81.2 µM
same,TGI,SK-OV-3 ovarian,> 100 µM
same,TGI,HCT-15 colon,43.8 µM
same,TGI,HOP-62 NSCLC,> 100 µM
same,TGI,OVCAR-3 ovarian,77.9 µM
Cn1nc(-c2ccccc2)c(C(=O)/C=C/c2ccc(F)cc2)c(N2CCCC2)c1=O,TGI,MOLT-4 leukemia,31.3 µM
same,TGI,EKVX NSCLC,52.9 µM
same,TGI,LOX IMVI melanoma,> 100 µM
same,TGI,SK-MEL-28 melanoma,32.8 µM
same,TGI,KM20L2 colon,28.3 µM
same,TGI,COLO 205 colon,32.1 µM
same,TGI,SF-539 CNS,28 µM
same,TGI,SN12C renal,> 100 µM
same,TGI,SF-268 CNS,51 µM
same,TGI,IGROV1 ovarian,50.5 µM
same,TGI,SK-MEL-5 melanoma,26.9 µM
same,TGI,DMS 273 small cell lung,83.3 µM
same,TGI,U251 CNS,29.2 µM
same,TGI,OVCAR-8 ovarian,> 100 µM
same,TGI,HOP-92 NSCLC,36.3 µM
same,TGI,K-562 leukemia,38.5 µM
same,TGI,786-0 renal,31.2 µM
same,TGI,HOP-18 NSCLC,31.8 µM
same,TGI,A549 NSCLC,> 100 µM
same,TGI,LXFL 529 NSCLC,32.1 µM
same,TGI,RPMI-8226 leukemia,30.5 µM
same,TGI,HL-60(TB) leukemia,23.2 µM
same,TGI,CCRF-CEM leukemia,27.8 µM
same,TGI,CAKI-1 renal,61.9 µM
same,TGI,RXF 393 renal,22.1 µM
same,TGI,TK-10 renal,71.4 µM
same,TGI,ACHN renal,62.8 µM
same,TGI,XF 498 CNS,54.2 µM
same,TGI,M19-MEL melanoma,33.8 µM
same,TGI,NCI-H460 lung,91.7 µM
same,TGI,NCI-H522 lung,20.7 µM
same,TGI,NCI-H23 lung,32.7 µM
same,TGI,DMS 114 small cell lung,29.1 µM
same,TGI,DLD-1 colon,39.4 µM
same,TGI,M14 melanoma,37.4 µM
same,TGI,SNB-19 CNS,48.6 µM
same,TGI,HT29 colon,15.3 µM
same,TGI,SW-620 colon,37.1 µM
same,TGI,UACC-62 melanoma,38.4 µM
same,TGI,HCT-116 colon,20.5 µM
same,TGI,SK-OV-3 ovarian,59.1 µM
same,TGI,HCT-15 colon,70 µM
CN[C@H](C)[C@@H](OC)c1ccccc1,TGI,SNB-75 CNS,> 100 µM
same,TGI,SK-MEL-2 melanoma,> 100 µM
same,TGI,MOLT-4 leukemia,> 100 µM
same,TGI,EKVX NSCLC,> 100 µM
same,TGI,LOX IMVI melanoma,> 100 µM
same,TGI,SK-MEL-28 melanoma,> 100 µM
same,TGI,UACC-257 melanoma,> 100 µM
same,TGI,SNB-78 CNS,> 100 µM
same,TGI,KM20L2 colon,> 100 µM
same,TGI,UO-31 renal,> 100 µM
same,TGI,COLO 205 colon,> 100 µM
same,TGI,MALME-3M melanoma,> 100 µM
same,TGI,SN12C renal,> 100 µM
same,TGI,IGROV1 ovarian,> 100 µM
same,TGI,SK-MEL-5 melanoma,> 100 µM
same,TGI,DMS 273 small cell lung,> 100 µM
same,TGI,U251 CNS,> 100 µM
same,TGI,SF-295 CNS,> 100 µM
same,TGI,OVCAR-8 ovarian,> 100 µM
same,TGI,HOP-92 NSCLC,> 100 µM
same,TGI,HCC-2998 colon,> 100 µM
same,TGI,K-562 leukemia,> 100 µM
same,TGI,786-0 renal,> 100 µM
same,TGI,HOP-18 NSCLC,> 100 µM
same,TGI,A549 NSCLC,> 100 µM
same,TGI,LXFL 529 NSCLC,> 100 µM
same,TGI,RPMI-8226 leukemia,> 100 µM
same,TGI,HL-60(TB) leukemia,> 100 µM
same,TGI,CCRF-CEM leukemia,> 100 µM
same,TGI,CAKI-1 renal,> 100 µM
same,TGI,RXF 393 renal,> 100 µM
same,TGI,TK-10 renal,> 100 µM
same,TGI,ACHN renal,> 100 µM
same,TGI,XF 498 CNS,> 100 µM
same,TGI,M19-MEL melanoma,> 100 µM
same,TGI,NCI-H460 lung,> 100 µM
same,TGI,KM12 colon,> 100 µM
same,TGI,DMS 114 small cell lung,> 100 µM
same,TGI,DLD-1 colon,> 100 µM
same,TGI,M14 melanoma,> 100 µM
same,TGI,SNB-19 CNS,> 100 µM
same,TGI,NCI-H226 lung,> 100 µM
same,TGI,HT29 colon,> 100 µM
same,TGI,SW-620 colon,> 100 µM
same,TGI,OVCAR-4 ovarian,> 100 µM
same,TGI,UACC-62 melanoma,> 100 µM
same,TGI,HCT-116 colon,> 100 µM
same,TGI,SK-OV-3 ovarian,> 100 µM
same,TGI,HCT-15 colon,> 100 µM
same,TGI,HOP-62 NSCLC,> 100 µM
same,TGI,OVCAR-3 ovarian,> 100 µM
same,TGI,OVCAR-5 ovarian,> 100 µM
